Assay results taken from patent US20240174690A1, “ANNULATED 2-AMINO-3-CYANO THIOPHENES AND DERIVATIVES FOR THE TREATMENT OF CANCER” (BOEHRINGER INGELHEIM INTERNATIONAL GMBH, priority 2021, published 2024).

Key:
[1] = Metabolic (microsomal) stability assay, human liver microsomes (HLM); assay type: in vitro ADME; settings: predicted clearance as percent of liver blood flow, 1 μM
Protocol: The metabolic degradation of the test compound is assayed at 37° C. with pooled liver microsomes (mouse (MLM), rat (RLM) or human (HLM)). The final incubation volume of 48 μL pertime point contains TRIS buffer (pH 7.5; 0.1 M), magnesium chloride (6.5 mM), microsomal protein (0.5 mg/mL for mouse/rat, 1 mg/mL for human specimens) and the test compound at a final concentration of 1 μM. Following a short preincubation period at 37° C., the reactions are initiated by addition of 12 μL beta-nicotinamide adenine dinucleotide phosphate, reduced form (NADPH, 10 mM) and terminated by transferring an aliquot into solvent after different time points (0, 5, 15, 30, 60 min). Additionally, the NADPH-independent degradation is monitored in incubations without NADPH, terminated at the last time point by addition of acetonitrile. The quenched incubations are pelleted by centrifugation (4,000 rpm, 15 min). An aliquot of the supernatant is assayed by LC-MS/MS to quantify the concentration of parent compound in the individual samples.
In vitro intrinsic clearance (CLint, in vitro) is calculated from the time course of the disappearance of the test drug during the microsomal incubation. Each plot is fitted to the first-order elimination rate constant as C(t)═C0*exp(−ke*t), where C(t) and C0 are the concentration of unchanged test drug at incubation time t and that at preincubation and ke is the disappearance rate constant of the unchanged drug. Subsequently, CLint in vitro (μL min^−1·amount protein) values are converted to predicted CLint,in vivo (mL min^−1 kg^−1) from incubation parameters according to the equation CLint, in vivo=CLint, in vitro×(incubation volume (ml)/amount protein (mg))×(amount protein (mg)/g liver tissue)×(liver weight/body wt.).
For better across species comparison the predicted clearance is expressed as percent of the liver blood flow [% QH] (mL min^−1·kg^−1) in the individual species. In general, high stability (corresponding to low % QH) of the compounds across species is desired.

KRAS (G12C)::SOS1 = KRAS (G12C)::SOS1 (Homo sapiens (Human), UniProt P01116, C118S/C51S/C80L/G12C); assay: KRAS::SOS1 AlphaScreen binding assay, KRAS G12C
Chain of KRAS (G12C)::SOS1 (P01116 other isoform, or with tags, fused parts or gaps G12C/C51S/C80L/C118S): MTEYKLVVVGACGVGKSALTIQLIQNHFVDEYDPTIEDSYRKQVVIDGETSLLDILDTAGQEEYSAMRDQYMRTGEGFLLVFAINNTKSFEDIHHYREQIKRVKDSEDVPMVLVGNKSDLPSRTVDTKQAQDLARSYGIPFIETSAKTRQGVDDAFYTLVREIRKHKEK
Description: This assay can be used to examine the potency with which compounds according to the invention binding to (mutated) KRAS inhibit the protein-protein interaction between SOS1 and (mutated) KRAS e.g., KRAS WT, KRAS G12C, KRAS G12D, KRAS G12V, KRAS G13D. […] Low IC50 values in this assay setting are indicative of strong inhibition of protein-protein interaction between SOS1 and KRAS:
These assays measure the inhibitory effect of compounds on KRAS mutant protein-protein interactions using the Alpha Screen technology by Perkin Elmer.
The following (mutant) enzyme forms of KRAS and interacting proteins are used in these assays at the given concentrations: • KRAS (G12D) 1-169, N-terminal 6His-tag, C-terminal avi-tag (Xtal BioStructures, Inc.); final assay concentration 10 nM and SOS1 564-1049, N-terminal 229 GST-tag, TEV cleavage site (Viva Biotech Ltd); final assay concentration 5 nM; • KRAS (G12C) 1-169, N-terminal 6His-tag for purification, cleaved off, C-terminal avi-tag, biotinylated, mutations: C51S, C80L, C118S (in house); final assay concentration 7.5 nM and SOS1 564-1049, N-terminal 229 GST-tag, TEV cleavage site (Viva Biotech Ltd); final assay concentration 5 nM; • KRAS (G12V) 1-169, N-terminal 6His-tag for purification, cleaved off, C-terminal avi-tag, biotinylated, TEV cleavage site, mutation: C118S, GDP loaded (in house); final assay concentration 10 nM and SOS1 564-1049, N-terminal 229 GST-tag, TEV cleavage site (Viva Biotech Ltd); final assay concentration 10 nM; • KRAS (G13D) 1-169, N-terminal 6His-tag for purification, cleaved off, C-terminal avi-tag, biotinylated, TEV cleavage site, mutation: C118S, GDP loaded (in house); final assay concentration 10 nM and SOS1 564-1049, N-terminal 229 GST-tag, TEV cleavage site (Viva Biotech Ltd); final assay concentration 10 nM; • KRAS (WT) 1-169, N-terminal 6His-tag for purification, cleaved off, C-terminal avi-tag, biotinylated, TEV cleavage site, mutation: C118S, GDP loaded (in house); final assay concentration 10 nM and SOS1 564-1049, N-terminal 229 GST-tag, TEV cleavage site (Viva Biotech Ltd); final assay concentration 10 nM.
Test compounds dissolved in DMSO are dispensed onto assay plates (Proxiplate 384 PLUS, white, PerkinElmer; 6008289) using an Access Labcyte Workstation with the Labcyte Echo 55×. For the chosen highest assay concentration of 100 μM, 150 nL of compound solution are transferred from a 10 mM DMSO compound stock solution. A series of eleven fivefold dilutions per compound are transferred to the assay plate, compound dilutions are tested in duplicates. DMSO are added as backfill to a total volume of 150 nL.
The assays run on a fully automated robotic system in a darkened room below 100 Lux. To 150 nl of compound dilution 10 μl of a mix including KRAS mutant protein, SOS1 (final assay concentrations see above) and GDP nucleotide (Sigma G7127; final assay concentration 10 μM) in assay buffer (1×PBS, 0.1% BSA, 0.05% Tween 20) are added into columns 1-24.
After 30 minutes incubation time 5 μl of Alpha Screen bead mix in assay buffer are added into columns 1-23. Bead mix consists of AlphaLISA Glutathione Acceptor Beads (PerkinElmer, Cat No AL109) and AlphaScreen Streptavidin Donor Beads (PerkinElmer Cat No 6760002) in assay buffer at a final assay concentration of 10 μg/ml each.
Plates are kept at room temperature in a darkened incubator. After an additional 60 minutes incubation time the signal is measured in a PerkinElmer Envision HTS Multilabel Reader using the AlphaScreen specs from PerkinElmer.
Each plate contains up to 16 wells of a negative control depending on the dilution procedure (platewise or serial) (DMSO instead of test compound; with KRAS mutant::SOS1 GDP mix and bead mix; column 23) and 16 wells of a positive control (DMSO instead of test compound; with KRAS mutant::SOS1 GDP mix w/o bead mix; column 24).
As internal control known inhibitors of KRAS mutant::SOS1 interaction can be measured on each compound plate. […]

Row | Structure (SMILES) | HLM QH [1] [%] | IC50 (KRAS (G12C)::SOS1) [nM]
1 | CO[C@@H]1C[C@@H]([C@H](C)Oc2cc(-c3ccn(C)n3)nc(-c3noc4c3CCC[C@@]43CCCc4sc(N)c(C#N)c43)n2)N(C)C1 [II-91] | 46 | 2
2 | C[C@H](Oc1cc(C2COCCO2)nc(-c2noc3c2CCC[C@@]32CCCc3sc(N)c(C#N)c32)n1)[C@@H]1CCCN1C (stereo partly drawn) [II-95] | 37 | 2
3 | C[C@H](Oc1cc(-c2ccn(C3COC3)n2)nc(-c2noc3c2CCC[C@@]32CCCc3sc(N)c(C#N)c32)n1)[C@@H]1C[C@H](F)CN1C [II-83] | 72 | 5
4 | C[C@H](Oc1cc(N2CCNCC23CCOC3)nc(-c2onc3c2CCC[C@@]32CCCc3sc(N)c(C#N)c32)n1)[C@@H]1CCCN1C (stereo partly drawn) [I-10] | 30 | 3
5 | C[C@H](Oc1cc(N2CCC(C#N)C2)nc(-c2noc3c2CCC[C@@]32CCCc3sc(N)c(C#N)c32)n1)[C@@H]1CCCN1C (stereo partly drawn) [II-99] | <24 | 3
6 | C[C@H](Oc1cc(N2CCNC3(CC3)C2)nc(-c2noc3c2CCC[C@@]32CCCc3sc(N)c(C#N)c32)n1)[C@@H]1CCCN1C [II-54] | 28 | 2
7 | C[C@H](Oc1cc(-n2cc(Cn3cncn3)nn2)nc(-c2noc3c2CCC[C@@]32CCCc3sc(N)c(C#N)c32)n1)[C@@H]1CCCN1C [II-124] | 37 | 2
8 | C[C@H](Oc1cc(N2CCC[C@H](O)C2)nc(-c2noc3c2CCC[C@@]32CCCc3sc(N)c(C#N)c32)n1)[C@@H]1CCCN1C [II-57] | <24 | 2
9 | C[C@H](Oc1cc(-n2cc(Cn3ccnc3)nn2)nc(-c2noc3c2CCC[C@@]32CCCc3sc(N)c(C#N)c32)n1)[C@@H]1CCCN1C [II-113] | 43 | 2
10 | C[C@H](Oc1cc(N2CC[C@H](N(C)C)C2)nc(-c2noc3c2CCC[C@@]32CCCc3sc(N)c(C#N)c32)n1)[C@@H]1CCCN1C [II-49] | <24 | 9
11 | C[C@H](Oc1cc(-c2cnn(C)c2)nc(-c2noc3c2CCC[C@@]32CCCc3sc(N)c(C#N)c32)n1)[C@@H]1CCCN1C [II-74] | <24 | 3
12 | C[C@H](Oc1cc(-c2ccn(C)n2)nc(-c2noc3c2CCC[C@@]32CCCc3sc(N)c(C#N)c32)n1)[C@@H]1CCCN1C [II-96] | <24 | 2
13 | Cc1cn(-c2cc(O[C@@H](C)[C@@H]3CCCN3C)nc(-c3noc4c3CCC[C@@]43CCCc4sc(N)c(C#N)c43)n2)nn1 [II-106] | 44 | 4
14 | CO[C@@H]1C[C@@H]([C@H](C)Oc2cc(-c3cnn(C)n3)nc(-c3noc4c3CCC[C@@]43CCCc4sc(N)c(C#N)c43)n2)N(C)C1 [II-62] | 58 | 3
15 | C[C@H](Oc1cc(N2Cc3cnn(C)c3C2)nc(-c2noc3c2CCC[C@@]32CCCc3sc(N)c(C#N)c32)n1)[C@@H]1CCCN1C [II-63] | <24 | 3
16 | C[C@H](Oc1cc(N2CCN3CCC3C2)nc(-c2onc3c2CCC[C@@]32CCCc3sc(N)c(C#N)c32)n1)[C@@H]1CCCN1C (stereo partly drawn) [I-9] | <24 | 5
17 | C[C@H](Oc1cc(-n2cc(C3CC3)nn2)nc(-c2noc3c2CCC[C@@]32CCCc3sc(N)c(C#N)c32)n1)[C@@H]1CCCN1C [II-118] | 25 | 2
18 | C[C@H](Oc1cc([C@H]2CCOC2)nc(-c2noc3c2CCC[C@@]32CCCc3sc(N)c(C#N)c32)n1)[C@@H]1CCCN1C [II-88] | 26 | 2
19 | C[C@H](Oc1cc(-n2cccc3cnnc2-3)nc(-c2noc3c2CCC[C@@]32CCCc3sc(N)c(C#N)c32)n1)[C@@H]1CCCN1C [II-92] | <24 | 5
20 | C[C@H](Oc1cc(-c2ccn(-c3ccccc3)n2)nc(-c2noc3c2CCC[C@@]32CCCc3sc(N)c(C#N)c32)n1)[C@@H]1CCCN1C [II-89] | <24 | 3
21 | C[C@H](Oc1cc(-n2ccnc2)nc(-c2noc3c2CCC[C@@]32CCCc3sc(N)c(C#N)c32)n1)[C@@H]1C[C@@H](F)CN1C [II-120] | 47 | 2
22 | C[C@H](Oc1cc(N2CC[C@@H](O)C2)nc(-c2noc3c2CCC[C@@]32CCCc3sc(N)c(C#N)c32)n1)[C@@H]1CCCN1C [II-66] | <24 | 2
23 | C[C@H](Oc1cc(-c2cn(C3COC3)nn2)nc(-c2noc3c2CCC[C@@]32CCCc3sc(N)c(C#N)c32)n1)[C@@H]1CCCN1C [II-100] | 28 | 3
24 | C[C@H](Oc1cc(-c2ccncc2)nc(-c2noc3c2CCC[C@@]32CCCc3sc(N)c(C#N)c32)n1)[C@@H]1CCCN1C [II-78] | 35 | 2
25 | Cc1nc(-c2cc(O[C@@H](C)[C@@H]3CCCN3C)nc(-c3noc4c3CCC[C@@]43CCCc4sc(N)c(C#N)c43)n2)cs1 [II-103] | <24 | 2
26 | CO[C@@H]1C[C@@H]([C@H](C)Oc2cc(-c3ccn(C4COC4)n3)nc(-c3noc4c3CCC[C@@]43CCCc4sc(N)c(C#N)c43)n2)N(C)C1 [II-107] | 45 | 2
27 | C[C@H](Oc1cc(-n2cncn2)nc(-c2noc3c2CCC[C@@]32CCCc3sc(N)c(C#N)c32)n1)[C@@H]1CCCN1C [II-70] | 61 | 2
28 | C[C@H](Oc1cc(-c2cc[nH]n2)nc(-c2noc3c2CCC[C@@]32CCCc3sc(N)c(C#N)c32)n1)[C@@H]1CCCN1C [II-71] | <24 | 2
29 | C[C@H](Oc1cc([C@@H]2CCOC2)nc(-c2noc3c2CCC[C@@]32CCCc3sc(N)c(C#N)c32)n1)[C@@H]1CCCN1C [II-94] | 48 | 1
30 | C[C@H](Oc1cc(-n2ccc(-c3ccccn3)n2)nc(-c2noc3c2CCC[C@@]32CCCc3sc(N)c(C#N)c32)n1)[C@@H]1CCCN1C [II-119] | <24 | 2
